These are literature values, as cited in patent publication US20080317843A1, “NANOPARTICULATE FORMULATIONS OF MODAFINIL” (Elan Corporation plc, priority 2006, published 2008).

One data set deals with receptors for GABA. As to conditions: pharmacologically relevant concentrations.
A further data set deals with receptors for serotonin. As to conditions: pharmacologically relevant concentrations.
Data set [1] relates to receptors for benzodiazepines. As to conditions: pharmacologically relevant concentrations.
The test system of the next data set is receptors for melatonin. As to conditions: pharmacologically relevant concentrations.
A further data set relates to receptors for adenosine. As to conditions: pharmacologically relevant concentrations.
For data set [2] the following is noted: for share of trough concentration (Cminss) of circulating modafinil: after once daily dosing.
For the next data set, the target named is T1, MAO-B (Homo sapiens, UniProt P27338).
T1 sequence (P27338 1-520): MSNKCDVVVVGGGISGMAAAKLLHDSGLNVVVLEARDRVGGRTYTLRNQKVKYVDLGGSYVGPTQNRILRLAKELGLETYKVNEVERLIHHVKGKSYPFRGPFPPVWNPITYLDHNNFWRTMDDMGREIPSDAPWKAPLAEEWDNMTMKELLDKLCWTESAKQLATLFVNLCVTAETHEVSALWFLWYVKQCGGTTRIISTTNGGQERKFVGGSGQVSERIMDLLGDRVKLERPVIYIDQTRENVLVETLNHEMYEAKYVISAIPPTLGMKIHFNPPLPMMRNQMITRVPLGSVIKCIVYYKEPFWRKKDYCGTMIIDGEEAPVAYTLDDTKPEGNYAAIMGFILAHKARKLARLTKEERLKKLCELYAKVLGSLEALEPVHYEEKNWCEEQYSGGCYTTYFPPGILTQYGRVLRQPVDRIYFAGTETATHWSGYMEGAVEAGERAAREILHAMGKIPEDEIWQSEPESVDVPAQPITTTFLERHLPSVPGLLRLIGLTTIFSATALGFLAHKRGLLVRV

For a further data set, the target named is CYP2C19 (Homo sapiens, UniProt P33261).
Sequence of CYP2C19 (P33261 whole entry): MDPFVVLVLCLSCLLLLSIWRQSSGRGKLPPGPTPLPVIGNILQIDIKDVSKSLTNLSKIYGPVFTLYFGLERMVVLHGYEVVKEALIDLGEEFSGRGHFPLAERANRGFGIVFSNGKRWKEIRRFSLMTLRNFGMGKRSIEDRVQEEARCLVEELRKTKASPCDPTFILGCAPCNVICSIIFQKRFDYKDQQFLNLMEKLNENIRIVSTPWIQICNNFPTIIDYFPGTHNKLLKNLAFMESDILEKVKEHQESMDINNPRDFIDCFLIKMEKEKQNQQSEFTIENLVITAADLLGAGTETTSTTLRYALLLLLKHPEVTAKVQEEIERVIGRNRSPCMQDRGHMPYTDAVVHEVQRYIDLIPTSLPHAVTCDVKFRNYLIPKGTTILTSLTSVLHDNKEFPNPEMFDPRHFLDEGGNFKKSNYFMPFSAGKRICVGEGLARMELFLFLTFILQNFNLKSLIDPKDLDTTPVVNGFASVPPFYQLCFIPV
The test system of a further data set is CYP3A4. As to conditions: chronic administration of modafinil 400 mg; substrates given orally.
The target in data set [3] is receptors for histamine-3 (Homo sapiens, UniProt Q9Y5N1). As to conditions: pharmacologically relevant concentrations.
Sequence of receptors for histamine-3 (Q9Y5N1 whole entry): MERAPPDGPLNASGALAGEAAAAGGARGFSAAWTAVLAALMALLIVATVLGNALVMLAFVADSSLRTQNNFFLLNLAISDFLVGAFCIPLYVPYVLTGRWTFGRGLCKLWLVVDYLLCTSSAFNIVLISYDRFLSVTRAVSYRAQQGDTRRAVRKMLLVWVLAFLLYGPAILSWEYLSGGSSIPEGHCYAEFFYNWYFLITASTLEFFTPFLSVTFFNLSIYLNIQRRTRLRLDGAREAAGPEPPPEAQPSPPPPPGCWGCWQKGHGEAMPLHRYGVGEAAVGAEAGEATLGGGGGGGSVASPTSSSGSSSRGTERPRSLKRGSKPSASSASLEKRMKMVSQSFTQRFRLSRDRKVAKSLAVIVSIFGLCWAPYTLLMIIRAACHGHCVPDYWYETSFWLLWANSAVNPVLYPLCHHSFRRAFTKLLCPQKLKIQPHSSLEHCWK
In data set [4] the test system is receptors for norepinephrine. As to conditions: pharmacologically relevant concentrations.

Consider `NC(=O)C[S+]([O-])C(c1ccccc1)c1ccccc1` (centres unmarked) [modafinil, 2-[(diphenylmethyl)sulfinyl]acetamide], for which the solubility in acetone result is listed as “sparingly to slightly soluble”, the solubility in cyclohexane result is “practically insoluble”, the solubility in methanol entry was “sparingly to slightly soluble” and the solubility in water result is “practically insoluble”. Moreover, in the data set on phosphodiesterases II-V, the “inhibition of the activities of phosphodiesterases II-V” value is “does not inhibit”. Moreover, the “binding to receptors for GABA” value in the data set on receptors for GABA is listed as “does not bind”. In addition, the “binding to receptors for serotonin” value with receptors for serotonin is “does not bind”. The “binding to receptors for benzodiazepines” value in data set [1] is “does not bind”. Also, the “binding to receptors for melatonin” value in the data set on receptors for melatonin was “does not bind”. The “binding to receptors for adenosine” value in the data set on receptors for adenosine is “does not bind”. For the same compound, the effective elimination half-life entry in data set [2] (after multiple doses) is given as “about 15 hours”. For the same compound, the “decrease in oral clearance (CL/F)” value in data set [2] (single dose 200 mg, 12 subjects mean age 63 years vs matched younger subjects) is approximately 20%. Besides, in data set [2] (with food), the “delay of absorption and (tmax) if taken with food” value is “delayed by approximately one hour”; the “effect of food on overall bioavailability” value was “no effect”. Also, at MAO-B, the “inhibition of the activity of MAO-B” value is “does not inhibit”. Besides, the “inhibition of CYP2C19” value on CYP2C19 is “reversible inhibitors”. Also, the “systemic exposure to two CYP3A4 substrates, ethinyl estradiol, and triazolam” value with CYP3A4 is “decrease”. The “binding to receptors for histamine-3” value in [3] is “does not bind”. The “binding to receptors for norepinephrine” value in data set [4] was “does not bind”. In addition, the aqueous insolubility (aqueous) is less than 1000 µg/mL.

For `NC(=O)CS(=O)(=O)C(c1ccccc1)c1ccccc1` [modafinil sulfone], the “inhibition of CYP2C19” value at CYP2C19 is listed as “reversible inhibitors”.

As for `NC(=O)C[S+]([O-])C(c1ccccc1)c1ccccc1` (single isomer, unassigned) [d-isomer], in data set [2], the “share of trough concentration (Cminss) of circulating modafinil” value is given as 10%.

Take `NC(=O)C[S@@+]([O-])C(c1ccccc1)c1ccccc1` (single isomer, unassigned) [l-isomer]: the “share of trough concentration (Cminss) of circulating modafinil” value in data set [2] is given as 90%. The “total exposure relative to the d-isomer” value in data set [2] (at steady state) is “approximately three times”. Further, the “half-life relative to the d-isomer” value in data set [2] (humans) is “approximately three times”.

In the case of `O=C(C[S+]([O-])C(c1ccccc1)c1ccccc1)NO` (centres unmarked) [Adrafinil, 2-(diphenylmethyl) sulfinyl acetohydroxamic acid], the solubility in acetone result is on record as “sparingly to slightly soluble”, the solubility in cyclohexane entry was “practically insoluble”, the solubility in methanol result is “sparingly to slightly soluble” and the solubility in water result is on record as “practically insoluble”.
